Holding throughout (assay type): functional, cell-based
What all share (settings): Oryctolagus cuniculus

Experiment [1] can be described thus: Antiplatelet activity against washed rabbit platelet assessed as inhibition of thrombin-induced platelet aggregation preincubated for 3 mins before thrombin challenge.
The nature of experiment [2]: Antiplatelet activity against washed rabbit platelet assessed as inhibition of collagen-induced platelet aggregation preincubated for 3 mins before collagen challenge.
Experiment [3] can be described thus: Antiplatelet activity against washed rabbit platelet assessed as inhibition of arachidonic acid-induced platelet aggregation preincubated for 3 mins before arachidonic acid challenge.

From ChEMBL document CHEMBL1150842, “Two new fatty diterpenoids from Salvia miltiorrhiza” (J Nat Prod, 2001) come the findings set out here.

Broadly, the IC50 is the point on the concentration scale where inhibition reaches its midpoint.

As for `CCCCCCCC/C=C\CCCCCCCC(=O)OCC(C)C1=C(O)C(=O)c2c(ccc3c2CCCC3(C)C)C1=O` (configuration not stated), the figures for the IC50 in experiment [1], in experiment [2] and in experiment [3] were greater than 100 µM, 50.4 µM and 5.1 µM, respectively.
The corresponding values for `CCCCCCCC/C=C\CCCCCCCC(=O)OCC(C)C1=C(O)C(=O)c2c(ccc3c(C)cccc23)C1=O` (configuration not stated) [16-O-OLEOYL DANSHENXINKUN A] are greater than 100 µM, 60.5 µM and 25.5 µM.
For `CC(=O)Oc1ccccc1C(=O)O` [ASPIRIN], the IC50 in experiment [3] came out at 27 µM.
